Reference: patent publication US20040037775A1, “Leukocyte internalized peptide-drug conjugates” (priority 2000, published 2004)
Read-outs that look alike come from different tables or passages of the source. Starred links: 1 amine or outer side, 2 acyl side, 3 side chain; linkers in the order of their positions; H or OH if unused. Positions of bridges follow the written chain, without caps; N, C: chain ends. Non-standard residues stand in square brackets, D forms with d. Residues, ends and D or L forms follow the SMILES beside them. *: point of attachment. DAMPA = CN(Cc1cnc2nc(N)nc(N)c2n1)c1ccc(C(=O)*)cc1; γGlu = O=C(O)[C@H](CCC(=O)[*:2])N[*:1]; Pen = CC(C)(S)[C@H](N)C(=O)O

Columns and labels:
[1] = tested on: dihydrofolate reductase enzyme (DHFR); test: DHFR inhibition assay (spectrophotometric NADPH loss, Dixon plots); format: biochemical; conditions: for Ymax: from Dixon plots
Method: Into a 2.0 mL cuvette, a 1.0 mL solution of 0.11 mM β-NADPH and 33 μL of 2.3 mM DHFA were aliquoted and allowed to equilibrate. […] To begin the assay, 33 μL of DHFR (0.12-0.25 unit/mL with 0.1% BSA) was added to the reaction mixture. The absorbance of the reaction mixture was then recorded continuously for 5 min at 340 nm and the enzyme activity was determined by the rate of NADPH loss. Enzyme activity was determined for three different fixed concentrations of substrate (0.19, 1.9 and 10.0 mM DHFA).

[2] = tested on: Molt-3 T-cells; test: cells; format: cell-based, human
Method: (§1) The cytotoxicity of MTX-peptide conjugates was evaluated in different cell lines, lincluding Molt-3 and L1210 T-cells, and KB epithelial cells. […] After 72 h of growth, the relative numbers of viable cells were determined according to the manufacture's protocols for measuring cytotoxicity using a Dojindo Cytotoxicity Assay Cell counting Kit-8 (CCK-8). To measure the cell viability, 10 μL of CCK-8 was added to each well and the plate was incubated for 4 h. After incubation, the absorbance at 450 nm was measured using a UV plate reader. Cell growth in the presence of different drug concentrations was calculated relative to the value obtained in the absence of the drug. […] Serial dilutions of compounds were prepared in un-supplemented medium, and 110 μL of drug solution was aliquoted in duplicate into 900 μL cell suspensions. Control flasks were treated with 110 μL of un-supplemented medium. Cells were incubated under standard conditions for 48 h, sufficient to allow control cells to divide approximately four times. Growth inhibition was determined by counting the cells on a Z2 model Coulter Counter (Coulter Electronics Ltd, Luton, Beds, UK). The IC50 values were calculated using Graphpad Prism software (Graphpad Software, San Diego, Calif.). KB MTT Assay: KB cells were seeded in Falcons® 96 well plates (Becton-Dickinson Labware Europe, France) at a density of 1,500 cells/well in a volume of 0.18 mL culture medium and incubated under standard culture conditions for 24 h after seeding to allow entry into the exponential phase of cell growth. […] In each assay condition, control cells were treated with 20 μL of un-supplemented medium instead of drug. Cells were incubated for 96 h to allow control cells to divide approximately four times before cell viability was determined by MTT assay.

[3] = tested on: L1210 mouse leukemia cells; test: cells; format: cell-based
Method: as §1

[4] = tested on: KB epithelial cells; test: KB MTT assay (96 h); format: cell-based, human
Method: Human KB epithelial l cells: The human KB epithelial cell line was a gift from Dr Gerrit Jansen (University Free Hospital, Amsterdam, Netherlands) and was developed to overexpress the membrane folate binding protein (mFBP). Cells were cultured in RPMI 1640 medium without folic acid and supplemented with 10% heat inactivated dialyzed FCS (50 mL volume), 0.2 mL of 50 μg/mL gentamicin, 1 mL of 50 μg/mL amphotericin B, and 5 mL of 200 mM L-glutamine. The folate source, 20 nM (R,S)-LV, was added to supply cells with adequate growth conditions.
The cytotoxicity of MTX-peptide conjugates was evaluated in different cell lines, lincluding Molt-3 and L1210 T-cells, and KB epithelial cells. […] After 72 h of growth, the relative numbers of viable cells were determined according to the manufacture's protocols for measuring cytotoxicity using a Dojindo Cytotoxicity Assay Cell counting Kit-8 (CCK-8). To measure the cell viability, 10 μL of CCK-8 was added to each well and the plate was incubated for 4 h. After incubation, the absorbance at 450 nm was measured using a UV plate reader. Cell growth in the presence of different drug concentrations was calculated relative to the value obtained in the absence of the drug. […] Growth inhibition was determined by counting the cells on a Z2 model Coulter Counter (Coulter Electronics Ltd, Luton, Beds, UK). The IC50 values were calculated using Graphpad Prism software (Graphpad Software, San Diego, Calif.). […] Cells were incubated for 96 h to allow control cells to divide approximately four times before cell viability was determined by MTT assay.
The number of viable cells after a 96-h incubation was determined by assessing their ability to reduce MTT ([…]). […] The absorbance of the solution in each well was measured at 540 nm on a MCC/340 model Titertak Multiscan® plate reader (Labsystems/Flow Laboratories, Oxfordshire, UK). The results were analyzed using Ascent Research software v.2.1 (Labsystems, UK).

[5] = tested on: L1210-1565 cells; test: cell cycle analysis in L1210-1565 cells (PI staining, flow cytometry); format: cell-based, mouse; conditions: 1 μM
Method: The cell pellets were resuspended and fixed in 2.5 mL of ice-cold 70% ethanol. These pellets were stored at 4° C. before analysis using flow cytometry.
PI staining of fixed cell pellets for cell cycle analysis: One day prior to analysis, cells were centrifuged at 450×g (2500 rpm) for 5 min at room temperature and the pellets re-suspended in 0.8 mL PBS followed by addition of 0.1 mL each of 1 mg/mL ribonuclease A (RNase A; Sigma) and 0.4 mg/mL PI (Sigma). RNA digestion by RNase A is required to avoid the intercalation of PI into the double-stranded regions of this nucleic acid, which interfers with the measurement of DNA. After a 30 min incubation at 37° C., samples were wrapped in aluminum foil and stored at 4° C. overnight. Cell cycle analysis was performed using a Coulter EPICS Elite ESP (Beckman Coulter, Buckinghamshire, UK) equipped with an argon-ion laser tuned to 488 nm and red fluorescence collected at 630 nm. DNA histograms were produced and analyzed using the Winmidi software package (v.2.8, written by J.Trotter, University of Cardiff, UK).

[6] = tested on: IL-6 production; test: IL-6 production in TNF-α stimulated HCAEC monolayers; format: cell-based; conditions: 0.001-100 μM, 24 h
Method: The cell monolayers were cultured in vitro with the test compounds (0.001 to 100 μM) in the presence of TNF-α for 24 h. Results are expressed as the percentage of cytokine relative to the positive control or non-treated monolayers (the baseline 100% cytokine production. The control levels (mean±SE) were as follows: IL-6: 3.4±0.17 ng/mL, IL-8: 199.5±9.13 ng/mL.
It is well known that some anti-inflammatory agents can modulate the secretion of inflammatory cytokines. […] MTX-peptide(s) only begins to effectively reduce the IL-8 production at ≧0.1 μM. At ≦1 μM, neither cLAB.L nor cLBE.L affected the IL-8 production (FIG. 8B).

[7] = tested on: collagen induced rheumatoid arthritis (CIA); test: collagen induced rheumatoid arthritis (CIA) animal model; format: in vivo, mice; conditions: for mice showing signs of joint eburnation: histopathologic examination; for Total joint damage (TJD): sum of histopathology scores (0 to 3) for each limb; for arthritis index score for the limb: i.v. once daily after day 35
Method: […] received intravenous injections of saline while another treatment group received MTX injections (molar equivalent dosage to conjugate) for five days. Clinical arthritis symptoms were evaluated weekly for up to sixteen weeks. Arthritis development was evaluated by several parameters, including the percent of animals acquiring arthritis, arthritis index (AI) score of limbs, changes in paw-volumes and histologic score for the joint.
Mice injected with collagen adjuvant developed pronounced inflammation of the joints, as evidenced by swelling and erythema. […] Total joint damage (TJD) was calculated as the sum the scores for each limb assigned by the pathologist on a scale of 0 to 3 (where 0 is no change and 3 is gross histological change).

[8] = biological target: T1, LFA-1 (Homo sapiens, UniProt P20701); test: binding to LFA-1 on Molt-3 T-cells (reduction of FITC anti-CD11a antibody binding, flow cytometry); conditions: 1, 10 or 100 μM, 45 min, 4° C.
T1 construct: endogenous in cells
Method: The binding of MTX-peptide conjugates to LFA-1 in response to LFA-1 activation was evaluated. As necessary, cells were activated with 10% v/v phorbol 12-myristate-13-acetate (PMA) containing medium to a final concentration of 2 μM PMA and incubated for 16 h. […] T-cells were centrifuged for 3 min at 1800 rpm, the supernatant was decanted by flicking off excess liquid, and the cells were re-suspended in 500 μL of PBS. The cells were then re-centrifuged, supernatant was removed, and cells were re-suspended again in 150 μL of PBS/BSA 1%. Next, 50 μL of an FITC-labeled anti-CD11a antibody (clone 38, 10 μg/L) was added and incubated for 45 min at 4° C. followed by washing. After the 45 min of incubation with FITC-labeled antibody, cell samples were transferred to Eppendorf tubes and centrifuged at 3000 g for 3 min. The supernatant was decanted, and the pellet was washed twice with 10 mM HEPES/PBS. The cells were then fixed with ice-cold 2% w/v paraformaldehyde/PBS for 20 min. Samples were analyzed using a Becton-Dickinson FACScan flow cytometer with 3.2.1 fl software for data analysis and acquisition.

[9] = biological target: T2, Thymidine synthase (TS) (Mus musculus, UniProt P07607); format: cell-based
T2 construct: endogenous in cells; host or cells: L1210-1565 mouse leukemia cells
T2 sequence (P07607 whole entry): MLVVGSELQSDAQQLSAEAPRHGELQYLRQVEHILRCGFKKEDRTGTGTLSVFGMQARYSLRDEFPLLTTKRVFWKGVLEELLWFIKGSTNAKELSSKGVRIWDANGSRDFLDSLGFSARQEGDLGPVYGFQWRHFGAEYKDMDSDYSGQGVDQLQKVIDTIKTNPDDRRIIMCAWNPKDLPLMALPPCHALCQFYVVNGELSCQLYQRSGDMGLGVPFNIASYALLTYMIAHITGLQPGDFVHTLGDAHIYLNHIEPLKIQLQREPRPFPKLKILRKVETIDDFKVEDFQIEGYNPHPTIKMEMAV
Method: An equivalent amount of unsupplemented medium was added to control flasks. On the day of each experiment, a fresh solution of unlabelled deoxyuridine (dUrd) was prepared in deionized H2O (dH2O) and was added to a stock solution of [5-^3H]-dUrd (22 Ci/mmole) to give a concentration of 300 μM and a specific activity of 3.3 Ci/mmole (˜7260 dpm/pmole).
To begin the assay, the 300 μM [5-^3H]-dUrd stock solution was diluted ten fold in deionized H2O and 50 μL of this solution was added to each culture flask to give a final concentration of 0.03 μM. The rate of ^3H2O formation was measured over a 1 h period (20, 40 and 60 min) by removing a 3×0.4 mL aliquot of the cells in culture medium and mixing it with 0.4 mL of ice-cold 1.0 M perchloric acid (PCA; Sigma) in microfuge tubes. […] For each time point, radioactivity was determined by counting each vial on the tritium channel of a Tri-Carb 2000CA Model Liquid Scintillation Analyzer (Canberra Packard, Pangbourne, Berkshire, UK). Background radioactivity was assessed by cooling a flask of untreated cells on ice before the start of each experiment and adding 50 mL of the [5-^3H]-dUrd solution. Aliquots of 3×0.4 mL aliquots of cells in culture medium were added to 1.0 M PCA-containing microfuge tubes and the rate of ^3H2O release was analyzed as described above. […]

T1 sequence (P20701 26-1170): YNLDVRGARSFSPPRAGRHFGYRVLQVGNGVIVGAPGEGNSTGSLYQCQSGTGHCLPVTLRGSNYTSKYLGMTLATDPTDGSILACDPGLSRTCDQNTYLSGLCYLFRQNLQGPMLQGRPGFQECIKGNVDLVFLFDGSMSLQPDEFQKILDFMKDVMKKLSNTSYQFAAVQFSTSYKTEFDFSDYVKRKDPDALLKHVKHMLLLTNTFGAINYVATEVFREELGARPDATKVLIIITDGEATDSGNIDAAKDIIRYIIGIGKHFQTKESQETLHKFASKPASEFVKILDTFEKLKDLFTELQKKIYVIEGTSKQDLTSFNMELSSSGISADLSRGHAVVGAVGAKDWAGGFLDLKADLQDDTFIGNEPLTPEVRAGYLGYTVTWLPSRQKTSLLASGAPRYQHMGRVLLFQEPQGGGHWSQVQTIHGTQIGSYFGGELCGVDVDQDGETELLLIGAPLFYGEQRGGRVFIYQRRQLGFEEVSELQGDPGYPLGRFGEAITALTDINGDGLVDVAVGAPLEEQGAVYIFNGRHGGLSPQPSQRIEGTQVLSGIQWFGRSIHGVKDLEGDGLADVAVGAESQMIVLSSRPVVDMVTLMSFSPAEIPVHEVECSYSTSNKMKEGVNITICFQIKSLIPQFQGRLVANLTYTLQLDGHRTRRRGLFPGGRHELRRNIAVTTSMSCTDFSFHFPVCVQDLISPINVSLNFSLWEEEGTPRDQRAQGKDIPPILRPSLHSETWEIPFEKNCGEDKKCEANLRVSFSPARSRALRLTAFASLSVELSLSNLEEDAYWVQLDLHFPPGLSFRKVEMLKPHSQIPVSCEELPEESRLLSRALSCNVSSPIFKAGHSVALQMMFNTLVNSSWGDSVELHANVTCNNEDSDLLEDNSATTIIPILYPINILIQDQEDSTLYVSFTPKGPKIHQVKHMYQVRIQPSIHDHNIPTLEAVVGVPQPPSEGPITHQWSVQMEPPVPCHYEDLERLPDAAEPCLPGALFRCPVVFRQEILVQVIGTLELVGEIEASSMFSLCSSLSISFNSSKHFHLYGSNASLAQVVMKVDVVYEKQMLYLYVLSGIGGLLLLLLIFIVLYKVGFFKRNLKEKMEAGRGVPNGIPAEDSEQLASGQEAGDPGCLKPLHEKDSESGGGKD
T1 sequence (P05107 23-769 partner): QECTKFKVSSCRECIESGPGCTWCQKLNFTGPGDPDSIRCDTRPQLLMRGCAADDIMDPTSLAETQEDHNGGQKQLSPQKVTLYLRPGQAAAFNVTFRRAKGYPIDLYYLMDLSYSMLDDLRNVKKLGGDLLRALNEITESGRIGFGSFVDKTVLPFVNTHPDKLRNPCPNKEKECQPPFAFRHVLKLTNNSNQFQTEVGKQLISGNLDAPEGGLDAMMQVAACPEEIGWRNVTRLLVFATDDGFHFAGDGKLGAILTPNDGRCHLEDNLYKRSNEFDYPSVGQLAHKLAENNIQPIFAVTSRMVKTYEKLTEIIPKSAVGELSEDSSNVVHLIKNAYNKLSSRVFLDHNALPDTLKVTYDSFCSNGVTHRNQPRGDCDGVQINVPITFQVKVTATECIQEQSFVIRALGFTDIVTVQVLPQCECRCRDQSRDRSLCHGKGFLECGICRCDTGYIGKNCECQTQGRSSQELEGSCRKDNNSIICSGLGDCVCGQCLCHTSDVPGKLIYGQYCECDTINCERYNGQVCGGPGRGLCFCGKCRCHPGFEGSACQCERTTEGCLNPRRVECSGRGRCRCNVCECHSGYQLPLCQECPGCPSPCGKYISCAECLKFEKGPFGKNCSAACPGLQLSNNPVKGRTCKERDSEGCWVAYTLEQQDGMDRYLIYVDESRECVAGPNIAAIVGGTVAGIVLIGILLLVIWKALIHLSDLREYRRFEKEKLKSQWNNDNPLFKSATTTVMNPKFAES

CN(Cc1cnc2nc(N)nc(N)c2n1)c1ccc(C(=O)N[C@@H](CCC(=O)O)C(=O)O)cc1 [MTX, methotrexate, reference compound]
Ymax [1]: 4.30 ± 0.42 × 10^−4
IC50 ([2]; Homo sapiens, MOLT-3, 72 h, read-out: IC50 Molt-3 T-cells): 61 ± 20 nM
IC50 ([3]; Mus musculus, L1210, 48 h, read-out: IC50 L1210 mouse leukemia cells): 14 ± 4 nM
IC50 ([4]; Homo sapiens, Epithelial cell): 27 nM
time of treatment after which arrest of cells in S phase was seen [5]: 24 h
block of IL-6 production [6]: partly block the production of IL-6
mice showing signs of joint eburnation [7]: 44%
Total joint damage (TJD) [7]: 7.4±2.5

CC(C)C[C@@H]1NC(=O)[C@H](C(C)C)NC(=O)[C@H](CO)NC(=O)CNC(=O)CNC(=O)[C@H](CCCNC(=N)N)NC(=O)[C@@H]2CCCN2C(=O)[C@@H](NC(=O)CC[C@H](NC(=O)c2ccc(N(C)Cc3cnc4nc(N)nc(N)c4n3)cc2)C(=O)O)C(C)(C)SSC[C@@H](C(=O)O)NC(=O)CNC(=O)[C@H]([C@@H](C)O)NC(=O)[C@H](C(C)C)NC1=O [MTX-cIBR] ({DAMPA-γGlu}-[Pen]PRGGSVLVTGC-OH; disulfide 1-12)
Km relative to that of MTX [1]: ~15 fold
Ymax [1]: 4.10 ± 0.18 × 10^−4
IC50 ([2]; 72 h): 2750 ± 800 nM
IC50 ([3]; 48 h): 5500 ± 2000 nM
IC50 [4]: > 10000 nM
binding to the LFA-1 receptor [8]: specific to the LFA-1 receptor
time of treatment after which arrest of cells in S phase was seen [5]: 36 h
ability to inhibit TS after wash-out [9]: retained more activity than the linear conjugate
inhibition of 3H2O production by TS, continuous exposure ([9]; 3 μM, 4 h incubation): inhibited to a similar degree
mice showing signs of joint eburnation [7]: 10%
Total joint damage (TJD) [7]: 4.4±2.1
arthritis index score for the limb ([7]; week 8): two
arthritis index score for the limb ([7]; week 12): zero
